According to PubChem BioAssay AID2060892 (Molecular Pharmacology Branch, DTP, NCI, 2025):

System: HOP-62 complex spheroids with HUVEC/MSC, viability
Assay: Anticancer human tumor HOP-62 cell line growth inhibition [RAS];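 further: spheroids exposed to agents for seven days before readout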;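 on viability, T/C: 100% = DMSO vehicle control viability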
Conditions: for IC50: curve of first compound; for viability, T/C: stronger effect = lower value; active means viability on the fitted dose curve at most 10% of control; inactive means the rest
Summary of the method: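 Multi-cell-type spheroids: tumor cells plus HUVEC endothelial cells and mesenchymal stem cells. RAS-pathway inhibitors were combined with targeted agents, each dosed in half-log steps down from clinical Cmax, or from 10 microM when Cmax was unknown.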

[1] = second compound 0.000949 µM, first compound 0.000949 µM
[2] = second compound 0.000949 µM, first compound 0.003 µM
[3] = second compound 0.000949 µM, first compound 0.00949 µM
[4] = second compound 0.000949 µM, first compound 0.03 µM
[5] = second compound 0.000949 µM, first compound 0.0949 µM
[6] = second compound 0.000949 µM, first compound 0.3 µM
[7] = second compound 0.003 µM, first compound 0.000949 µM
[8] = second compound 0.003 µM, first compound 0.003 µM
[9] = second compound 0.003 µM, first compound 0.00949 µM
[10] = second compound 0.003 µM, first compound 0.03 µM
[11] = second compound 0.003 µM, first compound 0.0949 µM
[12] = second compound 0.003 µM, first compound 0.3 µM
[13] = second compound 0.00949 µM, first compound 0.000949 µM
[14] = second compound 0.00949 µM, first compound 0.003 µM
[15] = second compound 0.00949 µM, first compound 0.00949 µM
[16] = second compound 0.00949 µM, first compound 0.03 µM
[17] = second compound 0.00949 µM, first compound 0.0949 µM
[18] = second compound 0.00949 µM, first compound 0.3 µM
[19] = second compound 0.03 µM, first compound 0.000949 µM
[20] = second compound 0.03 µM, first compound 0.003 µM
[21] = second compound 0.03 µM, first compound 0.00949 µM
[22] = second compound 0.03 µM, first compound 0.03 µM
[23] = second compound 0.03 µM, first compound 0.0949 µM
[24] = second compound 0.03 µM, first compound 0.3 µM
[25] = second compound 0.0949 µM, first compound 0.000949 µM
[26] = second compound 0.0949 µM, first compound 0.003 µM
[27] = second compound 0.0949 µM, first compound 0.00949 µM
[28] = second compound 0.0949 µM, first compound 0.03 µM
[29] = second compound 0.0949 µM, first compound 0.0949 µM
[30] = second compound 0.0949 µM, first compound 0.3 µM
[31] = second compound 0.3 µM, first compound 0.000949 µM
[32] = second compound 0.3 µM, first compound 0.003 µM
[33] = second compound 0.3 µM, first compound 0.00949 µM
[34] = second compound 0.3 µM, first compound 0.03 µM
[35] = second compound 0.3 µM, first compound 0.0949 µM
[36] = second compound 0.3 µM, first compound 0.3 µM

C=CC(=O)N1CCN(c2nc(OCC3CCCN3C)nc3c(F)c(-c4nc(N)cc(C)c4C(F)(F)F)c(Cl)cc23)C(C)C1 (stereo unspecified) + CCn1c(-c2cccnc2C(C)OC)c2c3cc(ccc31)N1CCOC(CC(NC(=O)C(C(C)C)N(C)C(=O)C3(F)CCN(C(=O)C#CC(C)(C)N(C)C)CC3)C(=O)N3CCCC(N3)C(=O)OCC(C)(C)C2)C1
inactive: viability, T/C (second compound 0.000949 µM, first compound 0.00316 µM) 103% | viability, T/C (second compound 0.000949 µM, first compound 0.01 µM) 101% | viability, T/C (second compound 0.000949 µM, first compound 0.0316 µM) 69.5% | viability, T/C (second compound 0.000949 µM, first compound 0.1 µM) 88.2% | viability, T/C (second compound 0.000949 µM, first compound 0.316 µM) 95.6% | viability, T/C (second compound 0.000949 µM, first compound 1 µM) 71.1% | viability, T/C (second compound 0.003 µM, first compound 0.00316 µM) 88.7% | viability, T/C (second compound 0.003 µM, first compound 0.01 µM) 87.3% | viability, T/C (second compound 0.003 µM, first compound 0.0316 µM) 76.8% | viability, T/C (second compound 0.003 µM, first compound 0.1 µM) 92.5% | viability, T/C (second compound 0.003 µM, first compound 0.316 µM) 84.9% | viability, T/C (second compound 0.003 µM, first compound 1 µM) 72.9% | viability, T/C (second compound 0.00949 µM, first compound 0.00316 µM) 90.4% | viability, T/C (second compound 0.00949 µM, first compound 0.01 µM) 87.6% | viability, T/C (second compound 0.00949 µM, first compound 0.0316 µM) 85.3% | viability, T/C (second compound 0.00949 µM, first compound 0.1 µM) 89.8% | viability, T/C (second compound 0.00949 µM, first compound 0.316 µM) 91% | viability, T/C (second compound 0.00949 µM, first compound 1 µM) 74.7% | viability, T/C (second compound 0.03 µM, first compound 0.00316 µM) 91.3% | viability, T/C (second compound 0.03 µM, first compound 0.01 µM) 92% | viability, T/C (second compound 0.03 µM, first compound 0.0316 µM) 87.7% | viability, T/C (second compound 0.03 µM, first compound 0.1 µM) 94.9% | viability, T/C (second compound 0.03 µM, first compound 0.316 µM) 79.1% | viability, T/C (second compound 0.03 µM, first compound 1 µM) 84.3% | viability, T/C (second compound 0.0949 µM, first compound 0.00316 µM) 86.5% | viability, T/C (second compound 0.0949 µM, first compound 0.01 µM) 91.2% | viability, T/C (second compound 0.0949 µM, first compound 0.0316 µM) 83.3% | viability, T/C (second compound 0.0949 µM, first compound 0.1 µM) 92.7% | viability, T/C (second compound 0.0949 µM, first compound 0.316 µM) 71.8% | viability, T/C (second compound 0.0949 µM, first compound 1 µM) 87.6% | viability, T/C (second compound 0.3 µM, first compound 0.00316 µM) 95.4% | viability, T/C (second compound 0.3 µM, first compound 0.01 µM) 75.1% | viability, T/C (second compound 0.3 µM, first compound 0.0316 µM) 73% | viability, T/C (second compound 0.3 µM, first compound 0.1 µM) 70.2% | viability, T/C (second compound 0.3 µM, first compound 0.316 µM) 74.6% | viability, T/C (second compound 0.3 µM, first compound 1 µM) 79.4%
> 1000 nM: IC50 (second compound 0.000949 µM) | IC50 (second compound 0.003 µM) | IC50 (second compound 0.00949 µM) | IC50 (second compound 0.03 µM) | IC50 (second compound 0.0949 µM) | IC50 (second compound 0.3 µM)

CC1(C)CCC(Nc2ncc(C(F)(F)F)c(-c3c[nH]c4c(P(C)(C)=O)c(C#N)ccc34)n2)CN1 (stereo unspecified) + CCn1c(-c2cccnc2C(C)OC)c2c3cc(ccc31)N1CCOC(CC(NC(=O)C(C(C)C)N(C)C(=O)C3(F)CCN(C(=O)C#CC(C)(C)N(C)C)CC3)C(=O)N3CCCC(N3)C(=O)OCC(C)(C)C2)C1
31.2 nM: IC50 (second compound 0.0949 µM)
2.99 nM: IC50 (second compound 0.3 µM)
202 nM: IC50 (second compound 0.03 µM)
inactive: viability, T/C [1] 108% | viability, T/C [2] 94.5% | viability, T/C [3] 61.2% | viability, T/C [4] 68.8% | viability, T/C [5] 80.4% | viability, T/C [6] 44.4% | viability, T/C [7] 105% | viability, T/C [8] 78.5% | viability, T/C [9] 62.7% | viability, T/C [10] 73.5% | viability, T/C [11] 62% | viability, T/C [12] 49.6% | viability, T/C [13] 97.3% | viability, T/C [14] 60.6% | viability, T/C [15] 65.2% | viability, T/C [16] 66.7% | viability, T/C [17] 61.6% | viability, T/C [18] 52.5% | viability, T/C [19] 86.8% | viability, T/C [20] 72.3% | viability, T/C [21] 58.2% | viability, T/C [22] 54.4% | viability, T/C [23] 42.8% | viability, T/C [24] 55.6% | viability, T/C [25] 83.3% | viability, T/C [26] 58.5% | viability, T/C [27] 59.7% | viability, T/C [28] 55.8% | viability, T/C [29] 33.1% | viability, T/C [30] 55.1% | viability, T/C [31] 73.3% | viability, T/C [32] 49.8% | viability, T/C [33] 46.1% | viability, T/C [34] 40.6% | viability, T/C [35] 40.1% | viability, T/C [36] 49.2%
> 300 nM: IC50 (second compound 0.000949 µM) | IC50 (second compound 0.003 µM) | IC50 (second compound 0.00949 µM)

CCc1c2c(nc3ccc(O)cc13)-c1cc3c(c(=O)n1C2)COC(=O)[C@]3(O)CC + CCn1c(-c2cccnc2C(C)OC)c2c3cc(ccc31)N1CCOC(CC(NC(=O)C(C(C)C)N(C)C(=O)C3(F)CCN(C(=O)C#CC(C)(C)N(C)C)CC3)C(=O)N3CCCC(N3)C(=O)OCC(C)(C)C2)C1
active: viability, T/C [3] 6.01% | viability, T/C [4] 6.3% | viability, T/C [5] 4.47% | viability, T/C [6] 15.6% | viability, T/C [9] 7.48% | viability, T/C [10] 7.59% | viability, T/C [11] 5.27% | viability, T/C [12] 2.57% | viability, T/C [15] 8.71% | viability, T/C [16] 5.6% | viability, T/C [17] 3.2% | viability, T/C [18] 2.48% | viability, T/C [21] 7.78% | viability, T/C [22] 6.23% | viability, T/C [23] 2.8% | viability, T/C [24] 3.13% | viability, T/C [27] 9.82% | viability, T/C [28] 6.01% | viability, T/C [29] 2.96% | viability, T/C [30] 2.45% | viability, T/C [33] 11% | viability, T/C [34] 4.25% | viability, T/C [35] 3.87% | viability, T/C [36] 2.14%
< 0.949 nM: IC50 (second compound 0.000949 µM) | IC50 (second compound 0.003 µM) | IC50 (second compound 0.00949 µM) | IC50 (second compound 0.03 µM) | IC50 (second compound 0.0949 µM) | IC50 (second compound 0.3 µM)
inactive: viability, T/C [1] 45% | viability, T/C [2] 15.7% | viability, T/C [7] 45.6% | viability, T/C [8] 14.3% | viability, T/C [13] 41.5% | viability, T/C [14] 13.7% | viability, T/C [19] 41% | viability, T/C [20] 14.1% | viability, T/C [25] 36.4% | viability, T/C [26] 14.8% | viability, T/C [31] 28.9% | viability, T/C [32] 13.9%
